Experimental data taken from the NIST ThermoML archive (doi:10.1021/acs.jced.6b00458).

Test: mn = molality of the nth substance listed, in mol/kg
Conditions: 100 kPa, Liquid, Vibrating tube method

[Cl-].[Na+] [sodium chloride] + O
mass density [kg/m3]
Conditions | m1 = 0.1 | m1 = 0.2 | m1 = 0.3 | m1 = 0.4 | m1 = 0.5 | m1 = 0.6
293.15 K | 1002.42 | 1006.57 | 1010.63 | 1014.73 | 1018.78 | 1022.6
298.15 K | 1001.21 | 1005.31 | 1009.33 | 1013.38 | – | 1021.15
303.15 K | 999.767 | 1003.83 | 1007.8 | 1011.82 | 1015.77 | –
308.15 K | 998.116 | 1002.14 | 1006.08 | 1010.07 | – | 1017.71
313.15 K | 996.272 | 1000.27 | 1004.18 | 1008.14 | 1012.04 | 1015.73
